Measured values taken from article PMC12311387, “Proactive Therapeutic Drug MONiToring to Guide Suppressive Antibiotic Therapy with DALBAvaNcin ( > 12 weeks) in Osteoarticular Infections (MONTALBANO)” (Journal of Bone and Joint Infection, 2025).

Key:
[1] = Therapeutic drug monitoring of plasma dalbavancin Cmin (LC-MS/MS) from the fourth dose onward; assay type: in vivo, human
Protocol: Included patients received the first three dalbavancin doses on day 1 (T0), day 8 (T1), and day 43 (T2) (Senneville et al., 2023). Subsequent injection timings were personalized and determined using dalbavancin Cmin measured immediately before the dalbavancin administration and maximum plasma concentrations ( Cmax ) measured 30 min after the end of the injection (Fig. 1). Starting from the third dose, Cmin and Cmax values were used in log-linear regression models by plotting logarithmic dalbavancin concentrations with time (Microsoft Excel Software, Microsoft Company, USA) (Cattaneo et al., 2023) to plan the subsequent administration aiming to maintain Cmin levels at ≥8 mg L^−1, as recommended in the recent literature (Cojutti et al., 2021).
Plasma dalbavancin blood samples were assessed using ethylene–diamine–tetraacetic acid (EDTA)-containing Vacutainers®. All samples were centrifuged at 3000 × g and plasma was separated and stored at -20 °C. Dalbavancin quantification was performed through a validated liquid chromatography tandem mass spectrometry method developed and validated according to the EMA guidelines. The analytical process consisted of a fast protein precipitation protocol of 50 µ L of plasma with 400 µ L of precipitation solution (methanol / acetonitrile, 3 / 1), centrifugation at 10 000 × g , 1 : 3 dilutions with water, and analysis. Chromatographic separation was achieved using a gradient (acetonitrile and water with formic acid 0.1 %) on a reversed-phase analytical column (Acquity UPLC BEH C18 1.70 µ m 2.1 × 50 mm; Waters, Milan, Italy). For quantification, analysis was performed in ESI-positive mode by monitoring the transition m/z = 909.45 > 340.2 for dalbavancin. The method was linear from 1 to 500 mg L^−1, with intraday and interday assay imprecision and inaccuracy consistently < 10 % during each analytical run.
The primary outcome was to evaluate the pharmacological efficacy of our proactive TDM-based administration method in maintaining the dalbavancin Cmin level at ≥8 mg L^−1 or ≥4 mg L^−1 taken from the fourth dose onward.
Pharmacological efficacy was defined as the number of instances where Cmin≥8 mg L^−1(or ≥4 mg L^−1) was achieved from the fourth dose onward. […] A tolerance window of up to ±4 d from the calculated injection date was allowed to adapt the model to real-life conditions and improve adherence to the treatment regimen.

[2] = Safety: monitoring of adverse events, renal toxicity and platelet count; assay type: in vivo, human; conditions: patients n=33, treatment >12 weeks
Protocol: Safety was assessed by monitoring AEs. We defined renal toxicity as a reduction in the estimated glomerular filtration rate (eGFR) to less than 30 mL min^−1/1.73 m^2, accompanied by a decrease of at least 20 % from baseline. A significant reduction in platelet count was considered when the count fell below 100 000 per mm^−3 with a decrease of at least 25 % from baseline.

[3] = cited from earlier work
Isolated pathogens = assay: MIC of pathogens isolated from the patients; assay type: cell-based; conditions: calculated for one patient only
From the text: Table 1 Baseline characteristics of the study population.

[4] = 12 PJI patients, 1500 mg day 1, 8, 14 then 1000 mg biweekly from day 28; all Cmin values well above target; ref Söderquist et al., 2024; cited from earlier work
Protocol: Currently, there is considerable heterogeneity in the use of SAT with dalbavancin for OAIs in both the initial and the maintenance doses. For the latter, some proposed regimens range from 500 mg weekly to 500 mg biweekly to 1000 mg biweekly (Martín et al., 2019; Morata et al., 2019; Wunsch et al., 2019). However, none of these studies employed TDM to assess the pharmacological efficacy of such regimens. Söderquist et al. (2024) recently shared their experience with 12 patients treated with long-term ( >12 weeks) dalbavancin for PJI, according to the Swedish national guidelines and introducing ...

[5] = tested on: osteoarticular infections (OAIs); assay: Clinical effectiveness from chart review in patients with osteoarticular infections; assay type: in vivo, human
Protocol: We established effectiveness with an assessment of clinical and microbiological outcomes from chart review detected up to 31 October 2024. If the patient was still on dalbavancin treatment, the clinical outcome was assessed as “ongoing treatment”. Otherwise, the assessment could result in the following: (i) completed therapy with clinical success (absence of failure or relapse at the follow-up); (ii) failure (clinical or microbiological failure with uncontrolled infection during dalbavancin treatment; need for medical interventions for the treated episode in addition to the initial program); (iii) relapse (exacerbation of the clinical condition within 6 months after the end of treatment); (iv) discontinuation of therapy due to AEs; (v) discontinuation of therapy due to new hospitalization for other clinical events; (vi) missing data (insufficient details to assess the outcome; lost at follow-up); (vii) death for infection-related conditions; or (viii) death for non-infection-related conditions.

[6] = only determinations within ±4 d of the date suggested by the model, plasma
[7] = plasma trough determinations from fourth dose onward, 33 OAI patients, TDM-guided dosing, total concentration

CN[C@H]1C(=O)N[C@@H]2Cc3ccc(cc3)Oc3cc4cc(c3O[C@@H]3O[C@H](C(=O)O)[C@@H](O)[C@H](O)[C@H]3NC(=O)CCCCCCCCC(C)C)Oc3ccc(cc3Cl)[C@@H](O)[C@@H]3NC(=O)[C@H](NC(=O)[C@@H]4NC(=O)[C@@H](NC2=O)c2cc(cc(O)c2Cl)Oc2cc1ccc2O)c1ccc(O)c(c1)-c1c(O[C@H]2O[C@H](CO)[C@@H](O)[C@H](O)[C@@H]2O)cc(O)cc1[C@@H](C(=O)NCCCN(C)C)NC3=O [dalbavancin]
Cmin ≥4 mg L^−1, n (%), Cmin performed at correct timing (n=95) [1, 6]: 93 (97.9) n (%)
Cmin ≥8 mg L^−1, n (%), Cmin performed at correct timing (n=95) [1, 6]: 81 (85.3) n (%)
Cmin ≥4 mg L^−1, n (%), Total Cmin (n=118) [1, 7]: 114 (96.6) n (%)
Cmin ≥8 mg L^−1, n (%), Total Cmin (n=118) [1, 7]: 93 (78.8) n (%)
AEs, n (%) [2]: 0 n (%)
Adverse effects on renal function or platelet count [2]: did not observe any adverse effects on renal function or platelet count
penetration proportion into bone tissue ([3]; ref Dunne et al., 2015): 13.1%
half-life ([3]; ref Rappo et al., 2019a): 14.4 days
total binding protein ([3]; ref Rappo et al., 2019a): 93%
MIC for dalbavancin (Isolated pathogens): < 0.06 µg/mL
Cmin [4]: > 8000 ng/mL
Completed therapy with clinical success, n (%) ([5]; patients n=33): 11 (33.3) n (%)
Failure, n (%) ([5]; patients n=33): 1 (3) n (%)
Ongoing, n (%) ([5]; patients n=33, still on treatment with controlled infection at end of study): 18 (54.5) n (%)
Relapse, n (%) ([5]; patients n=33, within 6 months after end of treatment): 3 (9.1) n (%)
